These results are taken from US9815839B2, “N-(1-(substituted-phenyl)ethyl)-9H-purin-6-amines as PI3K inhibitors” (Incyte Corporation, priority 2010, dated 2017).

The target of one experiment is T1, PI3Kδ (p110δ/p85α) (Homo sapiens, UniProt O00329).
T1 construct: purchased Millipore (Bedford, Mass.)
Description: PI3Kδ scintillation proximity assay. Format: biochemical. To be noted: 20 μM ATP, 4 nM PI3Kδ. An outline of the steps:
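Radiometric SPA: product captured on WGA beads after EDTA quench and counted, IC50 fitted against log inhibitor concentration. Reactions ran 210 min at room temperature with 4 nM PI3Kδ (p110δ/p85α), 20 μM each PIP2 and ATP plus 33P-ATP, pH 6.7 MOPS buffer, 0.5% DMSO final.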
For orientation: Scintillation proximity formats need no separation of bound from free tracer.

Experiment [1] relates to Pfeiffer cell line (diffuse large B cell lymphoma). Description: Pfeiffer cell proliferation assay. Type of experiment: cell-based. Conditions: Homo sapiens, Pfeiffer, Pfeiffer cells, 3-4 days plus 12 hours [3H]-thymidine incorporation. The protocol: Example C: Pfeiffer Cell Proliferation Assay
Pfeiffer cell line (diffuse large B cell lymphoma) was purchased from ATCC (Manassas, Va.) and maintained in the culture medium recommended (RPMI and 10% FBS). To measure the anti-proliferation activity of the compounds, the Pfeiffer cells were plated with the culture medium (2×10^3 cells/well/per 200 μl) into 96-well ultra-low binding plates (Corning, Corning, N.Y.), in the presence or absence of a concentration range of test compounds. After 3-4 days, [^3H]-thymidine (1 μCi/well) (PerkinElmer, Boston, Mass.) in PBS was then added to the cell culture for an additional 12 hours before the incorporated radioactivity was separated by filtration with water through GF/B filters (Packard Bioscience, Meridenj, Conn.) and measured by liquid scintillation counting with a TopCount (Packard Bioscience).
(In general: Incorporation of labelled thymidine or its analogues reports DNA synthesis.)

T1 sequence (O00329 whole entry, species assumed): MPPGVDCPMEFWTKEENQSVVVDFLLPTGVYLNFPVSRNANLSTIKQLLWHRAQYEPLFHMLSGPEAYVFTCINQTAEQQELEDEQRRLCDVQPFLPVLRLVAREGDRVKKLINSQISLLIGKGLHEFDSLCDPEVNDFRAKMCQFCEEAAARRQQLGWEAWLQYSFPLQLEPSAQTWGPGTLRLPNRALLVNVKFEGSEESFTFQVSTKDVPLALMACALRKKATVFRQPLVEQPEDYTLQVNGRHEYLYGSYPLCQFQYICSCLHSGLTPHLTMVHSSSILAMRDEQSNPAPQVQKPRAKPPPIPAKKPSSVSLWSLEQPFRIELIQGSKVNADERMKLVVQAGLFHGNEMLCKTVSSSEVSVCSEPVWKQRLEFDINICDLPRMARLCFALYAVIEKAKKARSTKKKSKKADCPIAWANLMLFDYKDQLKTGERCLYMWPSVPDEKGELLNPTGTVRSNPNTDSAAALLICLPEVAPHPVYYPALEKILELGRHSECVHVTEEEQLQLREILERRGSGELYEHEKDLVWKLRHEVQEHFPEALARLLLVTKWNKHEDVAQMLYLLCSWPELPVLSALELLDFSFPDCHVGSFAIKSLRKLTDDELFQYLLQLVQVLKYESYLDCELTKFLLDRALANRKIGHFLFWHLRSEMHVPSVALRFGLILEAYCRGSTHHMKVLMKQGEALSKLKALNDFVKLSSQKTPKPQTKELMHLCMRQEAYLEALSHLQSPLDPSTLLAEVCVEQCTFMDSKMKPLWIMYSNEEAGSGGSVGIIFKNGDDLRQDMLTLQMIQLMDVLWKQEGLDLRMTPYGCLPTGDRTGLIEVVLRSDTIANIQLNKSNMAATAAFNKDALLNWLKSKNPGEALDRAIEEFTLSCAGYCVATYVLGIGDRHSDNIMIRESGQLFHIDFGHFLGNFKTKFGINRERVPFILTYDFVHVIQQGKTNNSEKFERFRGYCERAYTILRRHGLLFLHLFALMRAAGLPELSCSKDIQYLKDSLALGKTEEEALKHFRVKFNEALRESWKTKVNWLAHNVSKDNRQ
T1 sequence (P27986 whole entry partner, species assumed): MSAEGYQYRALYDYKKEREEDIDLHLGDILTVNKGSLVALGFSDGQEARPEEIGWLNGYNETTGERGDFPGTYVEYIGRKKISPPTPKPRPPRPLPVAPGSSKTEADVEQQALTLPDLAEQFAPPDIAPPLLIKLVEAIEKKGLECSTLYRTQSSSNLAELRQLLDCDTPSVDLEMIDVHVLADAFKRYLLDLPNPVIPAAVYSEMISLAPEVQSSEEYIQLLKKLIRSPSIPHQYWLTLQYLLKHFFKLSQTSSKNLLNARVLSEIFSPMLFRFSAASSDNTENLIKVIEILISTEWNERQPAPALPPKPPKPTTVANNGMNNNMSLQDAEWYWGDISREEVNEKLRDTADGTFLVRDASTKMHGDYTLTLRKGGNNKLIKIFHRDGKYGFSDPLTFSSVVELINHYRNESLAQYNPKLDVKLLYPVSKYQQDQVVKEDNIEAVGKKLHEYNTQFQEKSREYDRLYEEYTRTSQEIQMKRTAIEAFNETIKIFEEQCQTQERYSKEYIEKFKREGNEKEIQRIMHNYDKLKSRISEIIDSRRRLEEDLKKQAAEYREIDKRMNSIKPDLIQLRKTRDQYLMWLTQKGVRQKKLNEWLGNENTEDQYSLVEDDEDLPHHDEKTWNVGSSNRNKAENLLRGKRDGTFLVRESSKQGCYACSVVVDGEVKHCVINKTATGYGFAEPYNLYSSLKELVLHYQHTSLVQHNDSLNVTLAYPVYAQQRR

As for `COc1c(C(C)Nc2ncnc3[nH]cnc23)cc(Cl)c(C)c1-c1c(C)noc1C` (stereo not shown) [Example 22, N-{1-[5-chloro-3-(3,5-dimethylisoxazol-4-yl)-2-methoxy-4-methylphenyl]ethyl]-9H-purin-6-amine], the IC50 (in general, the point on the concentration scale where inhibition reaches its midpoint) was under 50 nM against PI3Kδ (p110δ/p85α) and under 100 nM in experiment [1].

As for `COc1ncc(-c2c(C)c(Cl)cc(C(C)Nc3ncnc4[nH]cnc34)c2OC)cn1` (stereo not shown) [Example 23, N-{1-[5-chloro-2-methoxy-3-(2-methoxypyrimidin-5-yl)-4-methylphenyl]ethyl}-9H-purin-6-amine], the IC50 is under 50 nM on PI3Kδ (p110δ/p85α) and under 100 nM in experiment [1].

Consider `Cc1c(Cl)cc(C(C)Nc2ncnc3[nH]cnc23)c(-c2ccccc2)c1-c1ccc(C#N)cc1` (stereo not shown) [Example 24, 5′-chloro-6′-methyl-3′-[1-(9H-purin-6-ylamino)ethyl]-1,1′:2′,1″-terphenyl-4-carbonitrile], for which the IC50 at PI3Kδ (p110δ/p85α) is under 50 nM; in experiment [1] it was 100 to 500 nM.

In the case of `COc1ncc(-c2c(C)c(Cl)cc(C(C)Nc3ncnc4[nH]cnc34)c2-c2ccccc2)cn1` (stereo not shown) [Example 25, N-{1-[4-chloro-6-(2-methoxypyrimidin-5-yl)-5-methylbiphenyl-2-yl]ethyl}-9H-purin-6-amine], the IC50 against PI3Kδ (p110δ/p85α) was under 50 nM; in experiment [1], under 100 nM.

`CC(=O)Nc1ccc(-c2c(C)c(Cl)cc(C(C)Nc3ncnc4[nH]cnc34)c2-c2ccccc2)cc1` (stereo not shown) [Example 26, N-{5′-chloro-6′-methyl-3′-[1-(9H-purin-6-ylamino)ethyl]-1,1′:2′,1″-terphenyl-4-yl}acetamide]: the IC50 against PI3Kδ (p110δ/p85α) was under 50 nM; in experiment [1] it was under 100 nM.

Turning to `COc1c(C(C)Nc2ncnc3[nH]cnc23)cc(Cl)c(C)c1-c1ccc(NC(C)=O)cc1` (stereo not shown) [Example 27, N-{3′-chloro-6′-methoxy-2′-methyl-5′-[1-(9H-purin-6-ylamino)ethyl]biphenyl-4-yl}acetamide], the IC50 on PI3Kδ (p110δ/p85α) is under 50 nM; in experiment [1], 100 to 500 nM.

In the case of `COc1c(C(C)Nc2ncnc3[nH]cnc23)cc(Cl)c(C)c1-c1cccc(F)c1` (stereo not shown) [Example 28, N-[1-(5-chloro-3′-fluoro-2-methoxy-6-methylbiphenyl-3-yl)ethyl]-9H-purin-6-amine], the IC50 against PI3Kδ (p110δ/p85α) is under 50 nM; in experiment [1], 100 to 500 nM.

With `COc1c(C(C)Nc2ncnc3[nH]cnc23)cc(Cl)c(C)c1-c1cc(F)cc(F)c1` (stereo not shown) [Example 29, N-[1-(5-chloro-3′,5′-difluoro-2-methoxy-6-methylbiphenyl-3-yl)ethyl]-9H-purin-6-amine], the IC50 was under 50 nM against PI3Kδ (p110δ/p85α) and 100 to 500 nM in experiment [1].

Consider `COc1c(C(C)Nc2ncnc3[nH]cnc23)cc(Cl)c(C)c1-c1ccc(C#N)cc1` (stereo not shown) [Example 30, 3′-chloro-6′-methoxy-2′-methyl-5′[1-(9H-purin-6-ylamino)ethyl]biphenyl-4-carbonitrile], for which the IC50 was under 50 nM at PI3Kδ (p110δ/p85α) and 100 to 500 nM in experiment [1].

For the compound `COc1c(C(C)Nc2ncnc3[nH]cnc23)cc(Cl)c(C)c1-c1ccc(C(=O)NC2CC2)cc1` (stereo not shown) [Example 31, 3′-chloro-N-cyclopropyl-6′-methoxy-2′-methyl-5′-[1-(9H-purin-6-ylamino)ethyl]biphenyl-4-carboxamide], the IC50 on PI3Kδ (p110δ/p85α) was under 50 nM; in experiment [1] it was under 100 nM.

On to `COc1cncc(-c2c(C)c(Cl)cc(C(C)Nc3ncnc4[nH]cnc34)c2OC)c1` (stereo not shown) [Example 34, N-{1-[5-chloro-2-methoxy-3-(5-methoxypyridin-3-yl)-4-methylphenyl]ethyl}-9H-purin-6-amine], for which the IC50 against PI3Kδ (p110δ/p85α) is under 50 nM; in experiment [1], under 100 nM.

As for `COc1c(C(C)Nc2ncnc3[nH]cnc23)cc(Cl)c(C)c1-c1cccc(Cl)c1` (stereo not shown) [Example 35, N-[1-(3′,5-dichloro-2-methoxy-6-methylbiphenyl-3-yl)ethyl]-9H-purin-6-amine], the IC50 is 50 to 100 nM on PI3Kδ (p110δ/p85α) and over 1000 nM in experiment [1].

Regarding `COc1c(C(C)Nc2ncnc3[nH]cnc23)cc(Cl)c(C)c1-c1cncc(Cl)c1` (stereo not shown) [Example 36, N-{1-[5-chloro-3-(5-chloropyridin-3-yl)-2-methoxy-4-methylphenyl]ethyl}-9H-purin-6-amine], the IC50 at PI3Kδ (p110δ/p85α) was under 50 nM; in experiment [1], under 100 nM.

In the case of `CNC(=O)c1ccc(-c2c(C)c(Cl)cc(C(C)Nc3ncnc4[nH]cnc34)c2OC)cc1Cl` (stereo not shown) [Example 37, 3,3′-dichloro-6′-methoxy-N,2′-dimethyl-5′-[1-(9H-purin-6-ylamino)ethyl]biphenyl-4-carboxamide], the IC50 at PI3Kδ (p110δ/p85α) is under 50 nM; in experiment [1] it was under 100 nM.

`COc1c(C(C)Nc2ncnc3[nH]cnc23)cc(Cl)c(C)c1-c1ccc(C(F)(F)F)cc1` (stereo not shown) [Example 38, N-{1-[5-chloro-2-methoxy-6-methyl-4′-(trifluoromethyl)biphenyl-3-yl]ethyl}-9H-purin-6-amine]: the results for the IC50 (against PI3Kδ (p110δ/p85α); in experiment [1]) were 100 to 250 nM and over 1000 nM, respectively.

As for `CCOc1ccc(-c2c(C)c(Cl)cc(C(C)Nc3ncnc4[nH]cnc34)c2OC)cc1F` (stereo not shown) [Example 39, N-[1-(5-chloro-4′-ethoxy-3′-fluoro-2-methoxy-6-methylbiphenyl-3-yl)ethyl]-9H-purin-6-amine], the results for the IC50 (at PI3Kδ (p110δ/p85α); in experiment [1]) were 100 to 250 nM and over 1000 nM, respectively.

For `COc1c(C(C)Nc2ncnc3[nH]cnc23)cc(Cl)c(C)c1-c1cccc(C#N)c1` (stereo not shown) [Example 40, 3′-chloro-6′-methoxy-2′-methyl-5′-[1-(9H-purin-6-ylamino)ethyl]biphenyl-3-carbonitrile], the IC50 at PI3Kδ (p110δ/p85α) was under 50 nM; in experiment [1], under 100 nM.

As for `COc1c(C(C)Nc2ncnc3[nH]cnc23)cc(Cl)c(C)c1-c1ccc(CC#N)cc1` (stereo not shown) [Example 41, {3′-chloro-6′-methoxy-2′-methyl-5′-[1-(9H-purin-6-ylamino)ethyl]biphenyl-4-yl}acetonitril], the values for the IC50 (against PI3Kδ (p110δ/p85α); in experiment [1]) were under 50 nM and over 1000 nM, respectively.

As to `COCc1ccc(-c2c(C)c(Cl)cc(C(C)Nc3ncnc4[nH]cnc34)c2OC)cc1` (stereo not shown) [Example 42, N-{1-[5-chloro-2-methoxy-4′-(methoxymethyl)-6-methylbiphenyl-3-yl]ethyl}-9H-purin-6-amine], the IC50 against PI3Kδ (p110δ/p85α) was under 50 nM; in experiment [1] it was 100 to 500 nM.

Regarding `COc1c(C(C)Nc2ncnc3[nH]cnc23)cc(Cl)c(C)c1-c1ccc(-n2cccn2)cc1` (stereo not shown) [Example 43, N-{1-[5-chloro-2-methoxy-6-methyl-4′-(1H-pyrazol-1-yl)biphenyl-3-yl]ethyl}-9H-purin-6-amine], the half-maximal inhibitory concentration (IC50) at PI3Kδ (p110δ/p85α) is under 50 nM; in experiment [1], 100 to 500 nM.

As to `COCc1cccc(-c2c(C)c(Cl)cc(C(C)Nc3ncnc4[nH]cnc34)c2OC)c1` (stereo not shown) [Example 44, N-{1-[5-chloro-2-methoxy-3′-(methoxymethyl)-6-methylbiphenyl-3-yl]ethyl}-9H-purin-6-amine], the IC50 was under 50 nM on PI3Kδ (p110δ/p85α) and 100 to 500 nM in experiment [1].

Regarding `COc1c(C(C)Nc2ncnc3[nH]cnc23)cc(Cl)c(C)c1-c1ccc(OC2CCOCC2)nc1` (stereo not shown) [Example 45, N-(1-{5-chloro-2-methoxy-4-methyl-3-[6-(tetrahydro-2H-pyran-4-yloxy)pyridin-3-yl]phenyl}ethyl)-9H-purin-6-amine], the IC50 against PI3Kδ (p110δ/p85α) is under 50 nM; in experiment [1], 100 to 500 nM.

As for `COc1c(C(C)Nc2ncnc3[nH]cnc23)cc(Cl)c(C)c1-c1cccc(CC#N)c1` (stereo not shown) [Example 46, {3′-chloro-6′-methoxy-2′-methyl-5′-[1-(9H-purin-6-ylamino)ethyl]biphenyl-3-yl}acetonitrile], the figures for the IC50 (on PI3Kδ (p110δ/p85α); in experiment [1]) were under 50 nM and under 100 nM, respectively.

With `COc1c(C(C)Nc2ncnc3[nH]cnc23)cc(Cl)c(C)c1-c1cc(Cl)cc(Cl)c1` (stereo not shown) [Example 47, N-[1-(3′,5,5′-trichloro-2-methoxy-6-methylbiphenyl-3-yl)ethyl]-9H-purin-6-amine], the 50% inhibitory concentration (IC50) against PI3Kδ (p110δ/p85α) was 100 to 250 nM; in experiment [1] it was over 1000 nM.

In the case of `COc1c(C(C)Nc2ncnc3[nH]cnc23)cc(Cl)c(C)c1-c1ccc(N2CCOCC2)nc1` (stereo not shown) [Example 48, N-{1-[5-chloro-2-methoxy-4-methyl-3-(6-morpholin-4-ylpyridin-3-yl)phenyl]ethyl}-9H-purin-6-amine], the IC50 against PI3Kδ (p110δ/p85α) was under 50 nM; in experiment [1] it was under 100 nM.

On to `COc1c(C(C)Nc2ncnc3[nH]cnc23)cc(Cl)c(C)c1-c1ccnc(N2CCOCC2)c1F` (stereo not shown) [Example 49, N-{1-[5-chloro-3-(3-fluoro-2-morpholin-4-ylpyridin-4-yl)-2-methoxy-4-methylphenyl]ethyl}-9H-purin-6-amine], for which the results for the IC50 (against PI3Kδ (p110δ/p85α); in experiment [1]) were under 50 nM and under 100 nM, respectively.

On to `COc1c(C(C)Nc2ncnc3[nH]cnc23)cc(Cl)c(C)c1-c1ccc(F)nc1` (stereo not shown) [Example 51, N-{1-[5-chloro-3-(6-fluoropyridin-3-yl)-2-methoxy-4-methylphenyl]ethyl}-9H-purin-6-amine], for which the half-maximal inhibitory concentration (IC50) against PI3Kδ (p110δ/p85α) was under 50 nM; in experiment [1] it was under 100 nM.

For the compound `COc1ccc(-c2c(C)c(Cl)cc(C(C)Nc3ncnc4[nH]cnc34)c2OC)cn1` (stereo not shown) [Example 52, N-{1-[5-chloro-2-methoxy-3-(6-methoxypyridin-3-yl)-4-methylphenyl]ethyl}-9H-purin-6-amine], the results for the IC50 (against PI3Kδ (p110δ/p85α); in experiment [1]) were under 50 nM and under 100 nM, respectively.

For the compound `COc1c(C(C)Nc2ncnc3[nH]cnc23)cc(Cl)c(C)c1N1CCC(O)CC1` (stereo not shown) [Example 60, 1-{3-Chloro-6-methoxy-2-methyl-5-[1-(9H-purin-6-ylamino)ethyl]phenyl}piperidin-4-ol], the results for the IC50 (against PI3Kδ (p110δ/p85α); in experiment [1]) were under 50 nM and over 1000 nM, respectively.
